In the supplement of paper PMC10307832:

Columns and labels:
Assay in all cases: relative viability (nuclei count vs DMSO), 5 days (fraction); higher = more cells survive
[1] = compound: Cc1ccc2nc(NCCN)c3ncc(C)n3c2c1 + O=C(CCCCCCC(=O)Nc1ccccc1)NO [Vorinostat] (partner 1 µM)
How it was run: (§1)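 Relative viability is defined as nuclei in treated wells over nuclei in vehicle wells. Duplicate plates were run and medians reported. Lung cancer cell lines in 1536-well plates were dosed by pin tool one day after seeding, with one drug or with a fixed anchor-drug dose plus five library-drug doses (not always all listed) in √10 steps, and nuclei were counted after 5 days.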

Salubrinal + Luminespib = compound: O=C(/C=C/c1ccccc1)NC(NC(=S)Nc1cccc2cccnc12)C(Cl)(Cl)Cl [Salubrinal] + CCNC(=O)c1noc(-c2cc(C(C)C)c(O)cc2O)c1-c1ccc(CN2CCOCC2)cc1 [Luminespib] (partner 0.01 µM)
How it was run: as §1

Salubrinal + Tozasertib = compound: O=C(/C=C/c1ccccc1)NC(NC(=S)Nc1cccc2cccnc12)C(Cl)(Cl)Cl [Salubrinal] + Cc1cc(Nc2cc(N3CCN(C)CC3)nc(Sc3ccc(NC(=O)C4CC4)cc3)n2)n[nH]1 [Tozasertib] (partner 0.1 µM)
How it was run: as §1

Salubrinal + Olaparib = compound: O=C(/C=C/c1ccccc1)NC(NC(=S)Nc1cccc2cccnc12)C(Cl)(Cl)Cl [Salubrinal] + O=C(c1cc(Cc2n[nH]c(=O)c3ccccc23)ccc1F)N1CCN(C(=O)C2CC2)CC1 [Olaparib] (partner 8 µM)
How it was run: as §1

Row | Cell Line | relative viability ([1]; first compound 0.04 µM) | relative viability ([1]; first compound 0.1265 µM) | relative viability ([1]; first compound 0.4 µM) | relative viability ([1]; first compound 1.265 µM) | relative viability ([1]; first compound 4 µM) | relative viability (Salubrinal + Luminespib; first compound 0.08 µM) | relative viability (Salubrinal + Luminespib; first compound 0.253 µM) | relative viability (Salubrinal + Luminespib; first compound 0.8 µM) | relative viability (Salubrinal + Luminespib; first compound 2.53 µM) | relative viability (Salubrinal + Luminespib; first compound 8 µM) | relative viability (Salubrinal + Tozasertib; first compound 0.08 µM) | relative viability (Salubrinal + Tozasertib; first compound 0.253 µM) | relative viability (Salubrinal + Tozasertib; first compound 0.8 µM) | relative viability (Salubrinal + Tozasertib; first compound 2.53 µM) | relative viability (Salubrinal + Tozasertib; first compound 8 µM) | relative viability (Salubrinal + Olaparib; first compound 0.08 µM) | relative viability (Salubrinal + Olaparib; first compound 0.253 µM) | relative viability (Salubrinal + Olaparib; first compound 0.8 µM) | relative viability (Salubrinal + Olaparib; first compound 2.53 µM) | relative viability (Salubrinal + Olaparib; first compound 8 µM)
1 | HCC-44 | 0.981 | 1.05 | 1.09 | 1.08 | 1.11 | 1.32 | 1.08 | 1.09 | 1.02 | 0.894 | 1.24 | 0.916 | 1.08 | 0.74 | 0.708 | 1 | 0.968 | 1.03 | 0.957 | 1.03
2 | NCI-H596 | 0.674 | 0.714 | 0.609 | 0.668 | 0.588 | 0.971 | 0.775 | 0.972 | 1.2 | 0.92 | 0.968 | 1.1 | 0.897 | 0.909 | 0.806 | 0.768 | 0.525 | 0.597 | 0.668 | 0.581
3 | H3255 | 0.831 | 0.832 | 0.629 | 0.706 | 0.653 | 0.939 | 0.948 | 1.14 | 0.847 | 0.786 | 0.502 | 0.65 | 0.802 | 0.551 | 0.477 | 0.618 | 0.62 | 0.595 | 0.526 | 0.569
4 | NCI-H647 | 0.691 | 0.384 | 0.571 | 0.492 | 0.328 | 0.208 | 0.243 | 0.27 | 0.356 | 0.154 | 0.418 | 0.287 | 0.319 | 0.288 | 0.009 | 0.72 | 0.372 | 0.685 | 0.63 | 0.453
5 | NCI-H2023 | 0.682 | 0.689 | 0.568 | 0.682 | 0.638 | 0.884 | 0.703 | 0.874 | 0.517 | 0.884 | 0.323 | 0.286 | 0.323 | 0.236 | 0.182 | 0.472 | 0.428 | 0.435 | 0.373 | 0.524
6 | NCI-H23 | 0.759 | 0.654 | 0.501 | 0.493 | 0.578 | 0.213 | 0.227 | 0.196 | 0.217 | 0.216 | 0.349 | 0.393 | 0.678 | 0.305 | 0.296 | 0.359 | 0.233 | 0.36 | 0.31 | 0.309
7 | NCI-H520 | 0.719 | 0.725 | 0.808 | 0.674 | 0.574 | 0.255 | 0.218 | 0.279 | 0.217 | 0.203 | 0.501 | 0.446 | 0.44 | 0.403 | 0.469 | 0.334 | 0.361 | 0.325 | 0.322 | 0.338
8 | NCI-H460 | 0.74 | 0.7 | 0.708 | 0.683 | 0.631 | 0.0402 | 0.0238 | 0.031 | 0.0302 | 0.0364 | 0.393 | 0.268 | 0.484 | 0.253 | 0.102 | 0.541 | 0.606 | 0.514 | 0.355 | 0.368
9 | EKVX | 0.835 | 0.676 | 0.603 | 0.752 | 0.737 | 0.902 | 0.969 | 0.839 | 0.86 | 0.891 | 0.437 | 0.387 | 0.536 | 0.382 | 0.321 | 0.986 | 0.816 | 0.884 | 0.852 | 0.815
10 | NCI-H1944 | 0.639 | 0.581 | 0.358 | 0.491 | 0.581 | 0.792 | 1.04 | 0.807 | 0.733 | 0.831 | 0.269 | 0.269 | 0.276 | 0.229 | 0.278 | 0.435 | 0.478 | 0.461 | 0.431 | 0.417
11 | EPLC-272H | 0.564 | 0.406 | 0.279 | 0.374 | 0.415 | 0.382 | 0.547 | 0.156 | 0.275 | 0.164 | 0.426 | 0.249 | 0.258 | 0.243 | 0.242 | 0.913 |  | 0.977 | 0.596 | 0.452
12 | NCI-H1395 | 0.891 | 0.765 | 0.662 | 0.651 | 0.56 | 0.761 | 0.701 | 0.774 | 0.729 | 0.644 | 0.822 | 0.849 | 0.72 | 0.714 | 0.805 | 0.445 | 0.448 | 0.411 | 0.466 | 0.437
13 | NCI-H2126 | 0.931 | 0.821 | 0.788 | 0.835 | 0.755 | 0.958 | 0.833 | 1.03 | 0.951 | 0.877 | 0.979 | 0.801 | 0.968 | 0.827 | 0.666 | 1.01 | 0.754 | 0.941 | 0.88 | 0.951
14 | LXF-289 | 0.765 | 0.639 | 0.795 | 0.629 | 0.806 | 0.74 | 0.595 | 0.569 | 0.727 | 0.643 | 0.183 | 0.18 | 0.216 | 0.194 | 0.201 | 1.27 | 0.918 | 1.25 | 1.14 | 1.07
15 | NCI-H2009 | 0.7 | 0.736 | 0.72 | 0.709 | 0.617 | 1.09 | 0.966 | 0.984 | 0.995 | 0.878 | 0.762 | 0.733 | 0.774 | 0.718 | 0.637 | 0.758 | 0.581 | 0.547 | 0.685 | 0.656
16 | SK-MES-1 | 1.19 | 1.13 | 1.03 | 1.13 | 1.03 | 0.86 | 0.932 | 0.861 | 0.613 | 0.364 | 1.01 | 0.816 | 1.04 | 0.895 | 0.694 | 0.769 | 0.694 | 0.845 | 0.605 | 0.598
